Entries after “also recorded” stand apart in the source; their conditions may differ. Where only a bound is given, the exact number is not on record here.

Experimental findings from patent US20080280997A1, “Novel Pharmaceutical or Cosmetic Carriers Containing Cyclic Acetals” (GATTEFOSSE SAS, priority 2004, published 2008) are described below.

What all share (format): physicochemical
A short description of data set [1]: Miscibility in water. An excerpt: The BDM molecule is produced following the same process as that used in example 1 (without solvents), using pentanal and glycerol. The substance obtained is confirmed by GC-MS analysis. Its water solubility is approximately 2 g in 100 g water. Beyond that, turbidity appears.
Data set [2] can be described thus: Solubility in oils. The following applies: before turbidity appears.
The nature of data set [3]: Solubilisation of UV filters with ETP, EDM and PDM. As to conditions: for Solubility of 1,2-butyl methoxydibenzoylmethane in the solvent: UV filter 1,2-butyl methoxydibenzoylmethane; for Solubility of Benzophenone-3 in the solvent: UV filter Benzophenone-3. As for the experimental part: 4/ Solubilisation of Filters with ETP, EDM and PDM
The solubility of two organic UV filters (benzophenone-3 et 1,2-butyl methoxydibenzoylmethane) are assessed in ETP, EDM and PDM.
• homogenise the mixture for 30 seconds in a vortex mixer, • apply ultrasounds for 15 minutes (repeat if the filter is not miscible up to a maximum of 60 minutes), • for the following percentages, an identical quantity of UV filter is always added to a set initial quantity of solvent.
Solubility is expressed in g of filter soluble in 100 g of final solution.

Data set [4] can be described thus: Solubility of EDM in oils, alcohols and water. An excerpt: 3/ Solubility of EDM in Oils and Alcohols
The solubility of EDM is studied in various oils, alcohols and water. The solubility results are expressed in g of EDM incorporable into 100 g of oil or ester before turbidity appears.

Data set [5] can be described thus: Compatibility of EDM with gelling agents. An excerpt:
We tested the influence of 5% EDM in gels produced using gelling agents with different chemical natures.

Data set [6] can be described thus: Stability of the pH of an EDM solution. The following applies: 5% EDM. As for the experimental part:
The stability of solutions at different pHs after adding 5% EDM was studied.
The different solutions were prepared: • using citric acid and Na2HPO4 for pHs between 3 and 7, • using boric acid, KCl and NaOH for pHs between 8 and 10.

Data set [7] is described as follows: Solubilisation of non-water soluble active ingredients in water assisted by solvent. An excerpt:
Five hydrophobic active ingredients were solubilised in water using EDM.
The following table indicates what mass of solvent (g) must be added to solubilise 1 g of a mixture comprising 98% water and 2% active ingredient.
The smaller the quantity of solvent to be added, the greater its solubilising power.

A short description of data set [8]: Solubilisation of active ingredients in EDM. The following applies: solubility in EDM. As for the experimental part:
5/ Solubilisation of Active Ingredients in EDM
The solubility of the various active ingredients in EDM was studied. It is expressed in g of active ingredient soluble in 100 ml of EDM.

Setting [9] is: buffer solution initial pH 4.25.
Where [10] appears, read: buffer solution initial pH 6.15.
Setting [11] is: buffer solution initial pH 7.15.
Where [12] appears, read: buffer solution initial pH 10.0.
The mark [13] stands for this setting: active ingredient Bisabolol nat.
Where [14] appears, read: active ingredient Eusolex 4360 (Benzophenone 3).
The mark [15] stands for this setting: active ingredient HE eucalyptus (Eucalyptus globulus leaf oil).
The mark [16] stands for this setting: active ingredient Vitamin E (Tocopherol).

Consider Glycerol formal [reference compound], for which, in data set [1], the Miscibility in water entry is given as “Miscible”. Moreover, in data set [2], the “Solubility in Medium-chain triglyceride (MCT)” value (“Solubility … (MCT)” below) was <12 g of solvent solubilised in 100 g of oil or ester, the “Solubility in Octyldodecanol myristate (ODM)” value (“Solubility … (ODM)” below) is <12 g of solvent solubilised in 100 g of oil or ester and the “Solubility in Sunflower oil” value is given as 12 g of solvent solubilised in 100 g of oil or ester.
On to `CCC1(CO)COC(C)OC1` (centres unmarked) [ETP, 2-methyl-5-ethyl-5-hydroxymethyl-1,3-dioxane], for which the Miscibility in water entry in data set [1] is reported as “Miscible”. In addition, in data set [3], the “Solubility of 1,2-butyl methoxydibenzoylmethane in the solvent” value is on record as 5 g of filter soluble in 100 g of final solution and the “Solubility of Benzophenone-3 in the solvent” value is given as 35 g of filter soluble in 100 g of final solution. Further, in data set [2], the “Solubility … (MCT)” value is >100 g of solvent solubilised in 100 g of oil or ester, the “Solubility … (ODM)” value is on record as 100 g of solvent solubilised in 100 g of oil or ester and the “Solubility in Sunflower oil” value is listed as >100 g of solvent solubilised in 100 g of oil or ester.
With “2-propyl-4-hydroxymethyl-1,3-dioxolane with 2-propyl-1,3-dioxan-5-ol [PDM]”, in data set [1], the Miscibility in water entry is reported as “Miscible”. In data set [3], the “Solubility of 1,2-butyl methoxydibenzoylmethane in the solvent” value was 22 g of filter soluble in 100 g of final solution and the “Solubility of Benzophenone-3 in the solvent” value is on record as 18 g of filter soluble in 100 g of final solution. For the same compound, in data set [2], the “Solubility … (MCT)” value is recorded as >100 g of solvent solubilised in 100 g of oil or ester, the “Solubility … (ODM)” value was 100 g of solvent solubilised in 100 g of oil or ester and the “Solubility in Sunflower oil” value was >100 g of solvent solubilised in 100 g of oil or ester.
Turning to “2-ethyl-4-hydroxymethyl-1,3-dioxolane and 2-ethyl-1,3-dioxan-5-ol [EDM]”, the EDM mass in data set [4] (in Apricot kernel oil), in data set [4] (in Arlamol E (PPG-15 Stearyl Ether)), in data set [4] (in Butylene Glycol), in data set [4] (in Castor oil), in data set [4] (in DPPG (Propylene glycol dipelargonate)) and in data set [4] (in Glycerine) was >100 g of EDM incorporable into 100 g of oil or ester each time. Further, the EDM mass in data set [4] (in IPM (Isopropyl myristate)), in data set [4] (in Labrafac CC (Caprylic/capric triglyceride)), in data set [4] (in PEG-300), in data set [4] (in Propylene Glycol), in data set [4] (in Tegosoft TN (C12/C15 alkyl benzoate)) and in data set [4] (in Water) was >100 g of EDM incorporable into 100 g of oil or ester each time. The Viscosity variation entry in data set [5] (5% EDM in gels of Blanose 7HF, Jaguar HP 105, Keltrol T, Natrosol 250HX (cell wraps: Small variation)) is recorded as “Small”. Besides, the Viscosity drop result in data set [5] (5% EDM in gels of Novemer EC-1, Sepigel 305) is recorded as “Drop >30%”. Moreover, in data set [5] (5% EDM, gelling agents of the different families tested), the “Breaking of gels on adding EDM” value is “none of the gels formulated is broken”. In addition, in data set [1], the Miscibility in water result is “Miscible”. Also, the “Solubility of 1,2-butyl methoxydibenzoylmethane in the solvent” value in data set [3] is >32 g of filter soluble in 100 g of final solution. Further, the “Solubility of Benzophenone-3 in the solvent” value in data set [3] is given as >40 g of filter soluble in 100 g of final solution. The “pH after adding EDM” value came to 3.15 in data set [6] (buffer solution initial pH 3.1); 4.3 in data set [6] (setting [9]); 5.15 in data set [6] (buffer solution initial pH 5.1); 6.2 in data set [6] (setting [10]); 7.2 in data set [6] (setting [11]); 8.0 in data set [6] (buffer solution initial pH 8.0). Besides, the “pH after adding EDM” value in data set [6] (buffer solution initial pH 9.0) was determined as 9.1; in data set [6] (setting [12]), 10.0. For the same compound, the “pH at 1 month” value in data set [6] (buffer solution initial pH 3.1) worked out at 3; in data set [6] (setting [9]), 4.2; in data set [6] (buffer solution initial pH 5.1) it was 5.1; in data set [6] (setting [10]), 6.1; in data set [6] (setting [11]) it was 7.1; in data set [6] (buffer solution initial pH 8.0), 8.0. The results for the “pH at 1 month” value in data set [6] (buffer solution initial pH 9.0) and in data set [6] (setting [12]) were 9.0 and 10.0, respectively. Also, the pH variations observed result in data set [6] (buffer solutions pH 3 to 10, not significant) is “approximately 0.1 pH units”. For the same compound, the “Solubility … (MCT)” value in data set [2] was >100 g of solvent solubilised in 100 g of oil or ester. In addition, the “Solubility … (ODM)” value in data set [2] is listed as 50 g of solvent solubilised in 100 g of oil or ester. The “Solubility in Sunflower oil” value in data set [2] was >100 g of solvent solubilised in 100 g of oil or ester. Further, the “Mass of solvent to solubilise 1 g of mixture 98% water and 2% active ingredient” value is 0.9 g in data set [7] (setting [13]); 1.7 g in data set [7] (setting [14]); 1 g in data set [7] (setting [15]); 0.7 g in data set [7] (active ingredient Menthol); 2.0 g in data set [7] (setting [16]).
For `CCCCC(CC)COC(=O)C=Cc1ccc(OC)cc1` (centres unmarked) [Parsol MCX, Ethylhexyl methoxycinnamate], the “Mass of active ingredient (g)” value in data set [8] is >100 g of active ingredient soluble in 100 ml of EDM.
As for Tocopherol [Vitamin E], in data set [8], the “Mass of active ingredient (g)” value is reported as >100 g of active ingredient soluble in 100 ml of EDM.
On to `CC(C)=CCC[C@](C)(O)C1CC=C(C)CC1` (some centres unmarked) [Bisabolol nat., Bisabolol], for which, in data set [8], the “Mass of active ingredient (g)” value is given as >100 g of active ingredient soluble in 100 ml of EDM.
For `CO[C@H]1CO[C@H]2[C@@H]1OC[C@H]2OC` [Arlasolve DMI, Dimethyl Isosorbide, reference compound], the “Mass of solvent to solubilise 1 g of mixture 98% water and 2% active ingredient” value is listed as 2.3 g in data set [7] (setting [13]); 2.3 g in data set [7] (setting [14]); 2.2 g in data set [7] (setting [15]); 1.7 g in data set [7] (active ingredient Menthol); 5.0 g in data set [7] (setting [16]).
Consider Retinal [Vitamin A], for which, in data set [8], the “Mass of active ingredient (g)” value was >100 g of active ingredient soluble in 100 ml of EDM.
Consider “2-butyl-1,3-dioxolane-4-hydroxymethyl and 2-butyl-1,3-dioxan-5-ol [BDM]”, for which the water solubility entry in data set [1] (beyond that, turbidity appears) is on record as “approximately 2 g in 100 g water”. For the same compound, the Miscibility in water entry in data set [1] was “not miscible in water; also recorded: Non-miscible”.
Consider `CC1CCC(C(C)C)C(O)C1` (centres unmarked) [Menthol], for which the “Mass of active ingredient (g)” value in data set [8] is on record as >100 g of active ingredient soluble in 100 ml of EDM.
